Results from US8377909B2, “Use of phytate as agent inhibiting dissolution of crystals of calcium salts for the prevention of osteoporosis” (Universitat de les Illes Balears, priority 2006, dated 2013).

Key:
[1] = Dissolution of hydroxyapatite in the presence of phytate at pH 5; format: physicochemical; details: 12 and 24 uM phytate present in pH 5 stage; over 24 hours; FIG. 2
Description: FIG. 2 is a graph showing the quantity of calcium dissolved on treating hydroxyapatite for a period of 24 hours in the presence of various concentrations of phytate at pH5.
(§1) A homogenous suspension of crystalline calcium phosphate in the form of hydroxyapatite in TRIS buffer at pH 7.4 was prepared. This suspension was stirred for 8 hours. Then the crystals obtained were filtered and dried to constant weight. Then these crystals were resuspended at pH 5.0 (in acetate buffer) and the kinetics of dissolution of the salt was determined over 24 hours, continuously stirring the system. The kinetics were followed by determining the quantity of dissolved calcium and phosphorus by atomic emission spectroscopy (using inductively coupled plasma).
This experiment was repeated using concentrations of 12 and 24 uM of phytate in the pH 5 stage with the aim of studying the inhibitory effect of dissolution by phytate present in the solution.

[2] = Dissolution of hydroxyapatite previously treated with phytate at pH 7.4; format: physicochemical; details: 1, 6 and 12 uM phytate fixed at pH 7.4 stage; dissolution at pH 5.0 acetate buffer over 24 hours; FIG. 1
Description: FIG. 1 is a graph showing the quantity of calcium dissolved on treating hydroxyapatite, which has been previously treated with various concentrations of phytate at pH 7.4, for a period of 24 hours.
as §1
This experiment was repeated using concentrations of 1, 6 and 12 uM of phytate during the stage at pH 7.4 with the aim of fixing this compound on the hydroxyapatite structure.

[3] = Adsorption of phytate on hydroxyapatite crystals; format: physicochemical; details: TRIS buffer pH 7.4, stirred 8 hours
Description: Three homogenous suspensions of crystallised calcium phosphate in the form of hydroxyapatite in TRIS buffer at pH 7.4 were prepared. These suspensions were stirred for 8 hours in the presence of 1, 3 and 12 uM of phytate, respectively. Later, the suspensions were filtered and the amount of phytate adsorbed on the hydroxyapatite crystals was determined by difference between the initial and final phytate in the solution at pH 7.4.

[4] = Effect of phytate consumption on bone mass, axial densitometry; format: in vivo; details: overall conclusion of the densitometry study
Description: A study was carried out evaluating the effect of phytate consumption on the level of bone mass measured by axial densitometry and peripheral heel densitometry. In total, 433 axial densitometer measurements and 1473 peripheral heel densitometer measurements were made. The consumption of phytate by all subjects was evaluated by using a dietetic questionnaire. Subjects were classified into 4 groups (group 1, group 2, group 3 and group 4) according to increasing levels of phytate consumption.

## O=P(O)(O)O[C@H]1[C@H](OP(=O)(O)O)[C@@H](OP(=O)(O)O)[C@H](OP(=O)(O)O)[C@@H](OP(=O)(O)O)[C@H]1OP(=O)(O)O [phytate, myo-inositol hexaphosphate]
[1]
  inhibition of dissolution of hydroxyapatite (dissolved calcium): capable of inhibiting the dissolution of the salt
[2]
  inhibition of dissolution of hydroxyapatite (dissolved calcium): capable of inhibiting the dissolution of the salt
[3]; 1 uM phytate
  phytate present in the solution remained fixed to the calcium phosphate structure (hydroxyapatite): 62%
[3]; 3 uM phytate
  phytate present in the solution remained fixed to the calcium phosphate structure (hydroxyapatite): 66%
[3]; 12 uM phytate
  phytate present in the solution remained fixed to the calcium phosphate structure (hydroxyapatite): 56%
[4]
  effect of consumption of a diet rich in phytate on bone mass: higher bone mass
